Values of other authors, collected in patent US10772837B2, “Modified release multi-layer tablet cannabinoid formulations” (CannTab Therapeutics, Limited, priority 2017, dated 2020).
Like-named read-outs stand apart in the source and are kept apart here.

Experiments:
[1] = for solubility: in water
[2] = pure CBD, twice-daily dosages, paediatric patients; ranging from total seizure freedom to these reductions

| SMILES | BCS class ([1]; NICHD/FDA Oral Formulations Platform Report 1) | solubility [1] | solubility ([1]; listed as dronabinol) | seizure reduction [2] |
| --- | --- | --- | --- | --- |
| CCCCCc1cc(O)c2c(c1)OC(C)(C)[C@@H]1CCC(C)=C[C@@H]21 [Dronabinol, (−)-trans-Δ9-tetrahydrocannabinol] | class 2 or class 4 | insoluble in water | low |  |
| C=C(C)[C@@H]1CCC(C)=C[C@H]1c1c(O)cc(CCCCC)cc1O [CBD, cannabidiol] |  |  |  | 25-80% |
